IC50 data for 24 molecules are collected here from US9732070B2, “Protein kinase C inhibitors and uses thereof” (Rigel Pharmaceuticals, Inc., priority 2009, dated 2017).

One may read the IC50 as the concentration that inhibits the measured activity by half. Read a low IC50 as greater potency.

Structures are written as SMILES.

One assay relates to Human primary T cells. The assay can be described thus: IL-2 ELISA, human primary T cell, anti-CD3+CD28 stimulation. The assay is classed as cell-based. Conditions: IL-2 quantified by ELISA; human primary T cells stimulated with αCD3 and αCD28, 24 hours. The method, then:
Human primary T cell isolation and culture: Human primary T cells were prepared as follows. Whole blood was obtained from a healthy volunteer, mixed 1:1 with PBS, layered on to Ficoll Hypaque (Amersham Pharmacia Biotech, Piscataway, N.J., Catalog #17-1440-03) in 2:1 blood/PBS:ficoll ratio and centrifuged for 30 minutes at 4° C. at 1750 rpm. The cells at the serum: ficoll interface were recovered and washed twice with 5 volumes of PBS. These freshly isolated human peripheral blood mononuclear cells were cultured in Yssel's medium containing 40 U/mL IL2 in a flask pre-coated with 1 μg/mL αCD3 and 5 μg/mL αCD28 (Anti-Human CD3, BD Pharmingen Catalog #555336, Anti-Human CD28, Beckman Coulter Catalog #IM1376). The cells were stimulated for 3-4 days, then transferred to a fresh flask and maintained in RPMI (RPMI-1640 with L-Glutamine; Mediatech, Inc., Herndon Va., cat. #10-040-CM) with 10% FBS and 40 U/mL IL-2. The primary T-cells were then washed twice with PBS to remove the IL-2.
Primary T cell stimulation and IL2 ELISA: Human primary T cells (100,000 cells per well) were pre-incubated with or without test compound in Yssel's medium for 1 hour at 37° C. Cells were then stimulated by transferring them to round-bottom 96-well plates pre-coated with 1 μg/ml αCD3 and 5 μg/ml αCD28. For counter assay, cells were instead stimulated by adding 8× stock solutions of PMA and ionomycin in Yssels (for final concentrations of 0.5 ng/ml PMA and 0.1 uM ionomycin, both from Calbiochem). Cells were incubated at 37° C. for 24 hours before 100 μL supernatants were harvested for quantification of IL-2 by ELISA using Human IL-2 Duoset ELISA Kit from R and D Systems, Cat. # DY202E.
(In general: An ELISA detects its analyte on a solid surface through an enzyme-linked reagent.)
The molecule `CC(C)Oc1c(-n2nnn(C)c2=O)cc(Nc2ncc(F)c(NC3CC(C)(C)NC(C)(C)C3)n2)cc1C(F)(F)F` [I-51, N2-(4-isopropoxy-3-(4-methyl-4,5-dihysro-5-oxo-1H-tetrazol-1-yl)-5-trifluoromethylphenyl)-5-fluoro-N4-(2,2,6,6-tetramethylpiperidin-4-yl)pyrimidine-2,4-diamine] came in with an IC50 of less than 500 nM.

As to `CC1(C)CC(Nc2nc(Nc3ccc(F)c(-n4nnn(CCF)c4=O)c3)ncc2F)CC(C)(C)N1` [I-7, 5-fluoro-n2-{4-fluoro-3-[4-(2-fluoroethyl)-1,2,3,4-tetrazol-5-one-1-yl]}phenyl-n4-(2,2,6,6-tetramethylpiperidin-4-yl)-2,4-pyrimidinediamine], the 50% inhibitory concentration (IC50) fell in the range of 510 to 2990 nM.

Regarding `CC(C)Oc1ccc(Nc2ncc(F)c(NC3CC(C)(C)N(C)C(C)(C)C3)n2)cc1-n1nnn(C)c1=O` [I-10, 5-fluoro-n2-{4-isopropoxy-[3-(4-methyl)-1,2,3,4-tetrazol-5-one-1-yl]}phenyl-n4-(1,2,2,6,6-pentamethylpiperidin-4-yl)-2,4-pyrimidinediamine], the half-maximal inhibitory concentration (IC50) was less than 500 nM.

The same assay, now with this note: T-cell; IL-2 quantified by ELISA; human primary T cells stimulated with αCD3 and αCD28, 24 hours.
Molecule `COC(=O)c1cc(Nc2ncc(F)c(NC3CC(C)(C)N(C)C(C)(C)C3)n2)cc(-n2nnn(C)c2=O)c1C` [I-63, Methyl 5-((5-fluoro-4-((1,2,2,6,6-pentamethylpiperidin-4-yl)amino)-2-pyrimidinyl)amino)-2-methyl-3-(4-methyl-4,5-dihysro-5-oxo-1H-tetrazol-1-yl)benzoate] registered an IC50 of less than 500 nM.

In turn, `CN1C(C)(C)CC(Nc2nc(Nc3ccc(C4CC4)c(-n4nnn(C)c4=O)c3)ncc2F)CC1(C)C` [I-34, N2-{4-cyclopropyl-[3-(4-methyl)-1,2,3,4-tetrazol-5-one-1-yl]}phenyl-5-fluoro-N4-(1,2,2,6,6-pentamethylpiperidin-4-yl)-2,4-pyrimidinediamine] returned an IC50 of less than 500 nM.

In the case of `Cn1nnn(-c2cc(Nc3ncc(F)c(NC4CC(C)(C)NC(C)(C)C4)n3)ccc2OC(C)(C)C(F)(F)F)c1=O` [I-19, 1-(2-(1,1,1-trifluoro-2-methylpropan-2-yloxy)-5-(4-(2,2,6,6-tetramethylpiperidin-4-ylamino)-5-fluoropyrimidin-2-ylamino)phenyl)-4-methyl-1H-tetrazol-5(4H)-one], the 50% inhibitory concentration (IC50) was less than 500 nM.

On to `Cn1nnn(-c2cc(C#N)cc(Nc3ncc(F)c(NC4CC(C)(C)NC(C)(C)C4)n3)c2)c1=O` [I-50, N2-(5-cyano-3-(4-methyl-4,5-dihysro-5-oxo-1H-tetrazol-1-yl)phenyl)-5-fluoro-N4-(2,2,6,6-tetramethylpiperidin-4-yl)pyrimidine-2,4-diamine], for which the IC50 was less than 500 nM.

For `CC(C)n1nnn(-c2cc(Nc3ncc(F)c(NC4CC(C)(C)NC(C)(C)C4)n3)ccc2F)c1=O` [I-6], the IC50 was 510 to 2990 nM.

Molecule `CN1C(C)(C)CC(Nc2nc(Nc3ccc(OC4COC4)c(-n4nnn(C)c4=O)c3)ncc2F)CC1(C)C` [I-20, 1-(5-(4-(1,2,2,6,6-pentamethylpiperidin-4-ylamino)-5fluoropyrimidine-2-ylamino)-2-(oxetan-3-yloxy)phenyl)-4-methyl-1H-tetrazol-5(4H)-one] gave a half-inhibitory concentration (IC50) of less than 500 nM.

In turn, `Cc1c(-n2nnn(C)c2=O)cc(Nc2ncc(F)c(NC3CC(C)(C)NC(C)(C)C3)n2)cc1C(F)(F)F` [I-53, N2-(4-methyl-3-(4-methyl-4,5-dihydro-5-oxo-1H-tetrazol-1-yl)-5-trifluoromethylphenyl)-5-fluoro-N4-(2,2,6,6-tetramethylpiperidin-4-yl)pyrimidine-2,5-diamine] yielded an IC50 of less than 500 nM.

Molecule `Cn1nnn(-c2cc(Nc3ncc(C#N)c(NC4CC(C)(C)NC(C)(C)C4)n3)cc(C3CC3)c2F)c1=O` [I-44, 5-cyano-N2-{5-cyclopropyl-4-fluoro-[3-(4-methyl)-1,2,3,4-tetrazol-5-one-1-yl]}phenyl-N4-(2,2,6,6-tetramethylpiperidin-4-yl)-2,4-pyrimidinediamine] showed an IC50 of less than 500 nM.

`Cn1nnn(-c2cc(Nc3ncc(C(N)=O)c(NC4CC(C)(C)NC(C)(C)C4)n3)cc(F)c2C2CC2)c1=O` [I-57, N2-(4-cyclopropyl-5-fluoro-3-(4-methyl-4,5-dihydro-5-oxo-1H-tetrazol-1-yl)phenyl)-N4-(2,2,6,6-tetramethylpiperidin-4-yl)pyrimidine-2,4-diamino-5-carboxyamide] yielded an IC50 of less than 500 nM.

As to `CN1C(C)(C)CC(Nc2nc(Nc3ccc(F)c(-n4nn[nH]c4=O)c3)ncc2F)CC1(C)C` [I-1, 5-fluoro-n2-{4-fluoro-[3-(4-h)-1,2,3,4-tetrazol-5-one-1-yl]}phenyl-n4-(1,2,2,6,6-pentamethylpiperidin-4-yl)-2,4-pyrimidinediamine], the IC50 is 3000 to 25000 nM.

Regarding `CN1C(C)(C)CC(Nc2nc(Nc3ccc(OC(C)(C)C(F)(F)F)c(-n4nnn(C)c4=O)c3)ncc2F)CC1(C)C` [I-18, 1-(2-(1,1,1-trifluoro-2-methylpropan-2-yloxy)-5-(4-(1,2,2,6,6-pentamethylpiperidin-4-ylamino)-5-fluoropyrimidin-2-ylamino)phenyl)-4-methyl-1H-tetrazol-5(4H)-one], the IC50 was less than 500 nM.

Molecule `CC(C)n1nnn(-c2cc(Nc3ncc(F)c(NC4CC(C)(C)N(C)C(C)(C)C4)n3)ccc2F)c1=O` [I-5, 5-fluoro-n2-{4-fluoro-[3-(4-isopropyl)-1,2,3,4-tetrazol-5-one-1-yl]}phenyl-n4-(1,2,2,6,6-pentamethylpiperidin-4-yl)-2,4-pyrimidinediamine] yielded a 50% inhibitory concentration (IC50) of 510 to 2990 nM.

Take `Cc1c(Cl)cc(Nc2ncc(F)c(NC3CC(C)(C)N(C)C(C)(C)C3)n2)cc1-n1nnn(C)c1=O` [I-56, N2-(5-chloro-4-methyl-3-(4-methyl-4,5-dihydro-5-oxo-1H-tetrazol-1-yl)phenyl)-5-fluoro-N4-(1,2,2,6,6-pentamethylpiperidin-4-yl)pyrimidine-2,4-diamine]: the IC50 is less than 500 nM.

As to `CN1C(C)(C)CC(Nc2nc(Nc3cc(-n4nnn(C)c4=O)c(C4CC4)cc3F)ncc2F)CC1(C)C` [I-16, N2-{4-cyclopropyl-6-fluoro-[3-(4-methyl)-1,2,3,4-tetrazol-5-one-1-yl]}phenyl-5-fluoro-N4-(1,2,2,6,6-pentamethylpiperidin-4-yl)-2,4-pyrimidineamine], the IC50 is less than 500 nM.

Take `CN1C(C)(C)CC(Nc2nc(Nc3cc(-n4nnn(C)c4=O)c(C4CC4)c(C(F)(F)F)c3)ncc2F)CC1(C)C` [I-40, N2-{4-cyclopropyl-5-trifluoromethyl-[3-(4-methyl)-1,2,3,4-tetrazol-5-one-1-yl]}phenyl-5-fluoro-N4-(1,2,2,6,6-pentamethylpiperidin-4-yl)-2,4-pyrimidinediamine]: the IC50 is less than 500 nM.

In the case of `CN1C(C)(C)CC(Nc2nc(Nc3cc(-n4nnn(C)c4=O)c(C4CC4)cc3F)ncc2C#N)CC1(C)C` [I-17, 5-cyano-N2-{4-cyclopropyl-6-fluoro-[3-(4-methyl)-1,2,3,4-tetrazol-5-one-1-yl]}phenyl-N4-(1,2,2,6,6-pentamethylpiperidin-4-yl)-2,4-pyrimidinediamine], the half-inhibitory concentration (IC50) is less than 500 nM.

`Cn1nnn(-c2cc(Nc3ncc(F)c(NC4CC(C)(C)NC(C)(C)C4)n3)ccc2C#N)c1=O` [I-58, N2-(4-cyano-3-(4-methyl-4,5-dihydro-5-oxo-1H-tetrazol-1-yl)phenyl)-5-fluoro-N4-(2,2,6,6-tetramethylpiperidin-4-yl)pyrimidine-2,4-diamine] came in with an IC50 of less than 500 nM.

On to `CN1C(C)(C)CC(Nc2nc(Nc3ccc(Cl)c(-n4nnn(C)c4=O)c3)ncc2F)CC1(C)C` [I-29, N2-{4-chloro-[3-(4-methyl)-1,2,3,4-tetrazol-5-one-1-yl]}phenyl-5-fluoro-N4-(1,2,2,6,6-pentamethylpiperidin-4-yl)-2,4-pyrimidinediamine], for which the concentration for half-maximal inhibition (IC50) was less than 500 nM.

The molecule `Cc1cc(Nc2ncc(F)c(NC3CC(C)(C)N(C)C(C)(C)C3)n2)cc(-n2nnn(C)c2=O)c1C` [I-45, N2-(4,5-dimethyl-3-(4-methyl-4,5-dihydro-5-oxo-1H-tetrazol-1-yl)phenyl)-5-fluoro-N4-(1,2,2,6,6-pentamethylpiperidin-4-yl)pyrimidine-2,4-diamine] displayed an IC50 of less than 500 nM.

With `Cn1nnn(-c2cc(Nc3ncc(F)c(NC4CC(C)(C)NC(C)(C)C4)n3)ccc2OC2COC2)c1=O` [I-21, 1-(5-(4-(2,2,6,6-gtetramethylpiperidin-4-ylamino)-5-fluoropyrimidin-2-ylamino)-2-(oxetan-3-yloxy)phenyl)-4-methyl-1H-tetrazol-5(4H)-one], the IC50 is less than 500 nM.

In turn, `Cc1cc(Nc2ncc(F)c(NC3CC(C)(C)NC(C)(C)C3)n2)cc(-n2nnn(C)c2=O)c1C` [I-46, N2-(4,5-dimethyl-3-(4-methyl-4,5-dihydro-5-oxo-1H-tetrazol-1-yl)phenyl)-5-fluoro-N4-(2,2,6,6-tetramethylpiperidin-4-yl)pyrimidine-2,4-diamine] displayed an IC50 of less than 500 nM.
